Target: Human CARM1 (PRMT4) (Homo sapiens (Human), UniProt Q86X55)
Assay: CARM1 enzyme assay on peptide substrate (3H-SAM Flashplate)
Conditions: Biochemical potencies, classification codes; read-out: Biochem IC50

Sequence of Human CARM1 (PRMT4) (Q86X55 other isoform, or with tags, fused parts or gaps isoform Q86X55-1): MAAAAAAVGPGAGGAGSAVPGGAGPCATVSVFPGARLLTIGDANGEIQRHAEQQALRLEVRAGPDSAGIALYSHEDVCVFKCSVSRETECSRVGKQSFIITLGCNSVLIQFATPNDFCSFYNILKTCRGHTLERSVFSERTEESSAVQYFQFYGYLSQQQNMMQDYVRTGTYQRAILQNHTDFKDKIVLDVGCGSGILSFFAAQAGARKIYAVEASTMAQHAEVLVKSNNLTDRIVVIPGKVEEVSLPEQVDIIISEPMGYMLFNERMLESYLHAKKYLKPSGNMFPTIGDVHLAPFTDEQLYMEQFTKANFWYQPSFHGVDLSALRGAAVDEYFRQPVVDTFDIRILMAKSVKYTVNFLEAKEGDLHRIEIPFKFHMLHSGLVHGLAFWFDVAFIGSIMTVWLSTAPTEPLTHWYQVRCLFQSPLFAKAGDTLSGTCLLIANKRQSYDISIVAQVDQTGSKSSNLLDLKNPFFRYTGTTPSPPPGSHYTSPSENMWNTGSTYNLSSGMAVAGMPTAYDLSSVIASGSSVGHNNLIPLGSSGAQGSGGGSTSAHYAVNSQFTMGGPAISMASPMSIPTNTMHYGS

| IC50 | Structure (SMILES) |
| --- | --- |
| < 100 nM | CNCC(O)COc1cccc(-c2nc(N[C@@H]3CCOC3)c(C)c(N3Cc4cccnc4C3)n2)c1 (stereo partly shown) [Example 394-1a] |
| < 100 nM | CNCC(O)COc1cccc(-c2nc(N[C@@H]3CCOC3)c(C)c(N3CCN(C(C)=O)[C@@H](C)C3)n2)c1 (stereo partly shown) [Example 396-1a] |
| < 100 nM | CNCC(O)COc1cccc(-c2nc(NC3CCOC3)c(C)c(C(=O)NC3CCN(C)CC3)n2)c1 (stereo not shown) [Example 397-1a] |
| < 100 nM | CNCC(O)COc1cccc(-c2nc(NC3CCOC3)c(C)c(N3CC4(CCNCC4)c4ccccc43)n2)c1 (stereo not shown) [Example 398-1a] |
| < 100 nM | CNCC(O)COc1cccc(-c2nc(N[C@@H]3CCOC3)c(C)c(-c3ccc(OC)nc3)n2)c1 (stereo partly shown) [Example 408-1a] |
| < 100 nM | CNCC(O)COc1cccc(-c2nc(N[C@@H]3CCOC3)c(C)c(N3CC4CCC(C3)O4)n2)c1 (stereo partly shown) [Example 412-1a] |
| < 100 nM | CNCC(O)COc1cccc(-c2nc(N[C@@H]3CCOC3)c(C)c(C3=CC(C)(C)NC(C)(C)C3)n2)c1 (stereo partly shown) [Example 415-1a] |
| < 100 nM | CNCC(O)COc1cccc(-c2nc(NC3CCOC3)c(C)c(N3CCN(C(C)=O)C[C@H]3C)n2)c1 (stereo partly shown) [Example 421-1a] |
| < 100 nM | CNCC(O)COc1cccc(-c2nc(N[C@@H]3CCOC3)c(C)c(N3CCNCC3)n2)c1 (stereo partly shown) [Example 422-1a] |
| < 100 nM | CNCC(O)COc1cccc(-c2nc(N[C@@H]3CCOC3)c(C)c(N3CCC4(CC3)CNC(=O)C4)n2)c1 (stereo partly shown) [Example 424-1a] |
| < 100 nM | CNCC(O)COc1cccc(-c2nc(N[C@@H]3CCOC3)c(C)c(N3CCS(=O)(=O)CC3)n2)c1 (stereo partly shown) [Example 425-1a] |
| < 100 nM | CNCC(O)COc1cccc(-c2nc(N[C@@H]3CCOC3)c(C)c(N3Cc4ccncc4C3)n2)c1 (stereo partly shown) [Example 427-1a] |
| < 100 nM | CNCC(O)COc1cccc(-c2nc(N[C@@H]3CCOC3)c(C)c(N3CCC4(CCNCC4)CC3)n2)c1 (stereo partly shown) [Example 429-1a] |
| < 100 nM | CNCC(O)COc1cccc(-c2nc(N[C@@H]3CCOC3)c(C)c(N3CCN(S(C)(=O)=O)CC3)n2)c1 (stereo partly shown) [Example 434-1a] |
| < 100 nM | CNCC(O)COc1cccc(-c2nc(N[C@@H]3CCOC3)c(C)c(N3CCN(C)C(=O)C3)n2)c1 (stereo partly shown) [Example 435-1a] |
| < 100 nM | CNCC(O)COc1cccc(-c2nc(N[C@@H]3CCOC3)c(C)c(N3CCN(C4CC4)CC3)n2)c1 (stereo partly shown) [Example 436-1a] |
| < 100 nM | CNCC(O)COc1cccc(-c2nc(N[C@@H]3CCOC3)c(C)c(N3CC[C@@H](O)C3)n2)c1 (stereo partly shown) [Example 437-1a] |
| < 100 nM | CNCC(O)COc1cccc(-c2nc(N[C@@H]3CCOC3)c(C)c(N3CCN(C(C)=O)C(C)(C)C3)n2)c1 (stereo partly shown) [Example 439-1a] |
| < 100 nM | CNCC(O)COc1cccc(-c2nc(N[C@@H]3CCOC3)c(C)c(N3C[C@H]4CNC[C@H]4C3)n2)c1 (stereo partly shown) [Example 440-1a] |
| < 100 nM | CNCC(O)COc1cccc(-c2nc(N[C@@H]3CCOC3)c(C)c(N3CCC(S(C)(=O)=O)CC3)n2)c1 (stereo partly shown) [Example 441-1a] |
| < 100 nM | CNCC(O)COc1cccc(-c2nc(NC3CCOC3)c(C)c(N3CC(N)CC(Cl)C3)n2)c1 (stereo not shown) [Example 442-1a] |
| < 100 nM | CNCC(O)COc1cccc(-c2nc(N[C@@H]3CCOC3)c(C)c(N3C[C@H]4C[C@@H]3CN4C)n2)c1 (stereo partly shown) [Example 443-1a] |
| < 100 nM | CNCC(O)COc1cccc(-c2nc(NC3CCOC3)c(C)c(N3CCN(CCF)CC3)n2)c1 (stereo not shown) [Example 446-1a] |

| IC50 | Structure (SMILES) |
| --- | --- |
| < 100 nM | CNCC(O)COc1cccc(-c2nc(NC3CCOC3)c(C)c(N3CCN(C(=O)OC)C(C)(C)C3)n2)c1 (stereo not shown) [Example 447-1a] |
| < 100 nM | CCS(=O)(=O)N1CCN(c2nc(-c3cccc(OCC(O)CNC)c3)nc(NC3CCOC3)c2C)CC1(C)C (stereo not shown) [Example 448-1a] |
| < 100 nM | CNCC(O)COc1cccc(-c2nc(NC3CCOC3)c(C)c(N3CCN(CC(F)(F)F)CC3)n2)c1 (stereo not shown) [Example 449-1a] |
| < 100 nM | CNCC(O)COc1cccc(-c2nc(NC3CCOC3)c(C)c(N3CCN4C(=O)OC[C@@H]4C3)n2)c1 (stereo partly shown) [Example 454-1a] |
| < 100 nM | CNCC(O)COc1cccc(-c2nc(NC3CCOC3)c(C)c(N3CCN(C)C(C)(C)C3)n2)c1 (stereo not shown) [Example 455-1a] |
| < 100 nM | CCOC(=O)N1CCN(c2nc(-c3cccc(OCC(O)CNC)c3)nc(N[C@@H]3CCOC3)c2C)CC1 (stereo partly shown) [Example 456-1a] |
| < 100 nM | CNCC(O)COc1cccc(-c2nc(NC3CCOC3)c(C)c(N3CCN(CC(F)F)C(C)(C)C3)n2)c1 (stereo not shown) [Example 457-1a] |
| < 100 nM | CNCC(O)COc1cccc(-c2nc(N[C@@H]3CCOC3)c(C)c(N3CCN(CC(F)F)CC3)n2)c1 (stereo partly shown) [Example 458-1a] |
| < 100 nM | CNCC(O)COc1cccc(-c2nc(N[C@@H]3CCOC3)c(C)c(N3CCC(c4cccnc4)C3)n2)c1 (stereo partly shown) [Example 461-1a] |
| < 100 nM | CNCC(O)COc1cccc(-c2nc(N[C@@H]3CCOC3)c(C)c(N3CCC4(CCOCC4)C3)n2)c1 (stereo partly shown) [Example 462-1a] |
| < 100 nM | CNCC(O)COc1cccc(-c2nc(N[C@@H]3CCOC3)c(C)c(N3CCN(C)[C@H](C)C3)n2)c1 (stereo partly shown) [Example 463-1a] |
| < 100 nM | CCS(=O)(=O)N1CCN(c2nc(-c3cccc(OCC(O)CNC)c3)nc(N[C@@H]3CCOC3)c2C)CC1 (stereo partly shown) [Example 464-1a] |
| < 100 nM | CNCC(O)COc1cccc(-c2nc(N[C@@H]3CCOC3)c(C)c(N3Cc4nc(C)sc4C3)n2)c1 (stereo partly shown) [Example 465-1a] |
| < 100 nM | CNCC(O)COc1cccc(-c2nc(N[C@@H]3CCOC3)c(C)c(N3CCN(C4CC4)[C@H](C)C3)n2)c1 (stereo partly shown) [Example 466-1a] |
| < 100 nM | CNCC(O)COc1cccc(-c2nc(N[C@@H]3CCOC3)c(C)c(N3CC[C@@H](c4cccnc4)C3)n2)c1 (stereo partly shown) [Example 467-1a] |
| < 100 nM | CNCC(O)COc1cccc(-c2nc(N[C@@H]3CCOC3)c(C)c(N3CCC(n4nc(C)cc4C)C3)n2)c1 (stereo partly shown) [Example 468-1a] |
| < 100 nM | CNCC(O)COc1cccc(-c2nc(N[C@@H]3CCOC3)c(C)c(N3CCCC4(CN(CC(F)F)C4)C3)n2)c1 (stereo partly shown) [Example 469-1a] |
| < 100 nM | CCOC(=O)N1CCN(c2nc(-c3cccc(OCC(O)CNC)c3)nc(N[C@@H]3CCOC3)c2C)C[C@H]1C (stereo partly shown) [Example 470-1a] |
| < 100 nM | CNCC(O)COc1cccc(-c2nc(N[C@@H]3CCOC3)c(C)c(N3CCN(CC(F)F)[C@H](C)C3)n2)c1 (stereo partly shown) [Example 471-1a] |
| < 100 nM | CNCC(O)COc1cccc(-c2nc(N[C@@H]3CCOC3)c(C)c(N3CCC4(CN(CC(F)F)C4)C3)n2)c1 (stereo partly shown) [Example 475-1a] |
| < 100 nM | CNCC(O)COc1cccc(-c2nc(-c3cnc4c(C(=O)OC)cnn4c3)cc(N(C)C3CCOCC3)n2)c1 (stereo not shown) [Example 482-1a] |
| < 100 nM | CNCC(O)COc1cccc(-c2nc(-c3cn(S(C)(=O)=O)c4ncncc34)cc(N(C)C3CCOCC3)n2)c1 (stereo not shown) [Example 483-1a] |
| < 100 nM | CNCC(O)COc1cccc(-c2nc(-c3cn(C)c4ncncc34)cc(N(C)C3CCOCC3)n2)c1 (stereo not shown) [Example 485-1a] |

| IC50 | Structure (SMILES) |
| --- | --- |
| < 100 nM | CNC[C@H](O)COc1cccc(-c2nc(-c3cnc4cnccn34)cc(N(C)C3CCOCC3)n2)c1 [Example 486-1a] |
| < 100 nM | CNCC(O)COc1cccc(-c2nc(N(C)c3cncnc3)cc(N(C)C3CCOCC3)n2)c1 (stereo not shown) [Example 487-1a] |
| < 100 nM | CNC[C@@H](O)COc1cccc(-c2nc(-c3cn(S(C)(=O)=O)c4ncncc34)c(C)c(N(C)C3CCOCC3)n2)c1 [Example 488-1a] |
| < 100 nM | CNCC(O)COc1cccc(-c2nc(-c3cnc4ncccn34)cc(N(C)C3CCOCC3)n2)c1 (stereo not shown) [Example 489-1a] |
| < 100 nM | CNCC(O)COc1cccc(-c2nc(-c3cnc4cnccn34)cc(N(C)C3CCOCC3)n2)c1 (stereo not shown) [Example 490-1a] |
| < 100 nM | CNCC(O)COc1cccc(-c2nc(-c3ncc(C)n3C)cc(N(C)C3CCOCC3)n2)c1 (stereo not shown) [Example 491-1a] |
| < 100 nM | CNCC(O)COc1cc(OC)cc(-c2nc(-c3cnc4cnccn34)cc(N(C)C3CCOCC3)n2)c1 (stereo not shown) [Example 492-1a] |
| < 100 nM | CNCC(O)COc1cccc(-c2nc(-c3csnc3C)cc(N(C)C3CCOCC3)n2)c1 (stereo not shown) [Example 493-1a] |
| < 100 nM | CNCC(O)COc1cccc(-c2nc(-c3scnc3C)cc(N(C)C3CCOCC3)n2)c1 (stereo not shown) [Example 495-1a] |
| < 100 nM | CNCC(O)COc1cccc(-c2nc(-c3c(C)nn(C(C)C)c3C)cc(N(C)C3CCOCC3)n2)c1 (stereo not shown) [Example 496-1a] |
| < 100 nM | CNCC(O)COc1cccc(-c2nc(-c3ccnc(C#N)c3)cc(N(C)C3CCOCC3)n2)c1 (stereo not shown) [Example 498-1a] |
| < 100 nM | CNCC(O)COc1cccc(-c2nc(-c3ccc(S(C)(=O)=O)cc3)cc(N(C)C3CCOCC3)n2)c1 (stereo not shown) [Example 499-1a] |
| < 100 nM | CNCC(O)COc1cccc(-c2nc(N3CCOCC3)c(F)c(N(C)C3CCOCC3)n2)c1 (stereo not shown) [Example 500-1a] |
| < 100 nM | CNCC(O)COc1cccc(-c2nc(-c3cn(C)cn3)cc(N(C)C3CCOCC3)n2)c1 (stereo not shown) [Example 501-1a] |
| < 100 nM | CNCC(O)COc1cccc(-c2nc(N3CCN(C)[C@@H](C)C3)cc(N(C)C3CCOCC3)n2)c1 (stereo partly shown) [Example 502-1a] |
| < 100 nM | CNCC(O)COc1cccc(-c2nc(-c3ccnc(C(C)(C)O)c3)cc(N(C)C3CCOCC3)n2)c1 (stereo not shown) [Example 503-1a] |
| < 100 nM | CNCC(O)COc1cccc(-c2nc(-c3c[nH]c4ncncc34)cc(N(C)C3CCOCC3)n2)c1 (stereo not shown) [Example 504-1a] |
| < 100 nM | CC[C@H]1CN(c2cc(N(C)C3CCOCC3)nc(-c3cccc(OCC(O)CNC)c3)n2)CCN1 (stereo partly shown) [Example 505-1a] |
| < 100 nM | CNCC(O)COc1cc(Cl)cc(-c2nc(Nc3cncnc3)c(C)c(N(C)C3CCOCC3)n2)c1 (stereo not shown) [Example 506-1a] |
| < 100 nM | CNC[C@@H](O)COc1cccc(-c2nc(-c3cnc4cnccn34)cc(N(C)C3CCOCC3)n2)c1 [Example 507-1a] |
| < 100 nM | CNCC(O)COc1cc(Cl)cc(-c2nc(C(=O)NCC3CCOCC3)cc(N(C)C3CCOCC3)n2)c1 (stereo not shown) [Example 508-1a] |
| < 100 nM | CNCC(O)COc1cccc(-c2nc(-c3ccnc(C(=O)NC)c3)cc(N(C)C3CCOCC3)n2)c1 (stereo not shown) [Example 510-1a] |
| < 100 nM | CNC[C@@H](O)COc1cccc(-c2nc(-c3cn(S(C)(=O)=O)c4ncncc34)cc(N(C)C3CCOCC3)n2)c1 [Example 511-1a] |

| Structure (SMILES) | IC50 |
| --- | --- |
| CNCC(O)COc1cccc(-c2nc(NC3CCOC3)c(C)c(N3CC4CC(C3)N4)n2)c1 (stereo not shown) [Example 452-1a] | < 100 nM |

Source: patent US20230279020A9, “CARM1 INHIBITORS AND USES THEREOF” (Epizyme, Inc., priority 2013, published 2023)
